# Measurements taken from patent US20150202311A1, “Collagen-peptide complex” (Q'SAI CO., LTD., priority 2013, published 2015).
# What was measured:
# collagen peptide [1] = test: Complex formability of theaflavins and epicatechin with collagen peptide (total Hyp in supernatant / complex); type: binding, pig; conditions: catechin 0.2 μmol in 1 ml
# Method: (§1) Collagen peptide (dry powder of the pig skin-derived collagen hydrolysate, the average molecular weight: 3000-5000, manufactured by Nippi, Inc.) was dissolved in water so that the specified concentration is achieved.
# A supernatant was obtained by adding the triple volume (v/v) of ethanol to the aqueous solution and centrifuging (10,000×g, 15 min). The supernatant was hydrolyzed with hydrochloric acid (under reduced pressure, 150° C., and 1 hour). After the PITC treatment, the amount of PTC-Hyp (=the total amount of Hyp in the solution) was determined by carrying out reverse-phase chromatography (column: LiChroCART 250-4 (manufactured by Merck)). The amount of PTC-Hyp (=the amount of free Hyp) was determined by carrying out the PITC treatment/reverse-phase chromatography for the supernatant without hydrochloric acid hydrolysis.
# The respective aqueous solutions of theaflavins and epicatechin (1 mg/ml) and collagen peptide aqueous solution (200 mg/ml) were prepared, and they were raised at room temperature so that the below-described contents are attained. In the test examples of the present patent application, the following reagents were used.
# After mixing, the supernatant and precipitate were separated by centrifuging (8,000×g, […]). According to Method 4, the total amount of Hyp was determined for the supernatant (=“the total amount of Hyp in the supernatant”). “The total amount of Hyp in the complex” was calculated by subtracting “the total amount of Hyp in the supernatant” from the amount of collagen peptide used in the above reaction (2 mg or 10 mg).
# collagen peptide [2] = test: Coprecipitation of black tea components with collagen peptide, reverse-phase chromatography; type: binding, pig; conditions: black tea A 200 ml + collagen peptide 5 g, FIG. 7B
# Method: as §1
# To black tea A (200 ml), collagen peptide (5 g) was added and mixed; the supernatant and precipitate were separated by centrifuging (10,000×g, for 10 minutes) (Example 6). To determine the components, of the black tea A before the addition of the collagen peptide (FIG. 7A), the supernatant after centrifuging (FIG. 7B), and the precipitate solubilized with SDS (FIG. 7C), were analyzed by reverse-phase chromatography (column: Cosmosil 5C18-AR-II (manufactured by Nacalai Tesque, Inc.), mobile phase: 0.1% formic acid-containing acetonitrile, detection: 215 nm, 280 nm), respectively.
Compound,Total Hyp in the complex (%) (collagen peptide [1]; Collagen peptide 2 mg),Total Hyp in the supernatant (%) (collagen peptide [1]; Collagen peptide 2 mg),Total Hyp in the complex (%) (collagen peptide [1]; Collagen peptide 10 mg),Total Hyp in the supernatant (%) (collagen peptide [1]; Collagen peptide 10 mg),fate of black tea component in the supernatant after mixing with collagen peptide and centrifuging (collagen peptide [2])
"O=c1c(O)cc([C@H]2Oc3cc(O)cc(O)c3C[C@H]2O)cc2c([C@H]3Oc4cc(O)cc(O)c4C[C@H]3O)cc(O)c(O)c12 [Example 8, theaflavin]",86.5%,13.5%,83.8%,16.2%,disappeared from the supernatant
"O=C(O[C@@H]1Cc2c(O)cc(O)cc2O[C@@H]1c1cc(=O)c(O)c2c(O)c(O)cc([C@H]3Oc4cc(O)cc(O)c4C[C@H]3O)c2c1)c1cc(O)c(O)c(O)c1 [Example 9, theaflavin-3-gallate]",87.0%,13.0%,86.6%,13.4%,disappeared from the supernatant
Cn1c(=O)c2c(ncn2C)n(C)c1=O [caffeine],–,–,–,–,remained mostly in the supernatant
O=C(O[C@@H]1Cc2c(O)cc(O)cc2O[C@@H]1c1ccc(O)c(O)c1)c1cc(O)c(O)c(O)c1 [epicatechin gallate],–,–,–,–,remained mostly in the supernatant
O=C(O[C@@H]1Cc2c(O)cc(O)cc2O[C@@H]1c1cc(O)c(O)c(O)c1)c1cc(O)c(O)c(O)c1 [epigallocatechin gallate],–,–,–,–,remained mostly in the supernatant
"theaflavin-3,3′-digallate [Example 11]",98.0%,2.0%,97.8%,2.2%,disappeared from the supernatant
theaflavin-3′-gallate [Example 10],97.7%,2.3%,90.5%,9.5%,disappeared from the supernatant
